The values below come from ChEMBL document CHEMBL1201862, “PubChem BioAssay data set” (2004).

Active and inactive are the calls of the source. Where only a bound is given, the exact number is not on record here.

Assay [1] is described as follows: luciferase reporter signal suppression in cells – H4 neuroglioma cells, luminescence, dose response (AID 1990). In kind it is functional, cell-based.
The nature of assay [2]: Luminescence Cell-Based Dose Response HTS to Identify Inhibitors of 5'UTR Stem-Loop Driven Prion Protein mRNA Translation in H4 Neuroglioblastoma Cells. [Related pubchem assays: 1827 (Project Summary), 1813 (Primary HTS)]. Format: functional.
Assay [3] can be described thus: alpha-synuclein stem-loop luciferase translation blockers – H4 neuroglioma cells, luminescence, confirmation (AID 1988). In kind it is functional, cell-based.
Assay [4] has as its system HEK293. Briefly: EBV LMP1 TES2 canonical NF-kB signalling blockers – cell-based, HEK293, luciferase, cherry-pick, dose response (AID 588343). Format: functional. As to conditions: Homo sapiens.
The target of assay [5] is T1, Apoptotic protease-activating factor 1 (Homo sapiens, UniProt O14727).
T1 sequence (O14727 whole entry): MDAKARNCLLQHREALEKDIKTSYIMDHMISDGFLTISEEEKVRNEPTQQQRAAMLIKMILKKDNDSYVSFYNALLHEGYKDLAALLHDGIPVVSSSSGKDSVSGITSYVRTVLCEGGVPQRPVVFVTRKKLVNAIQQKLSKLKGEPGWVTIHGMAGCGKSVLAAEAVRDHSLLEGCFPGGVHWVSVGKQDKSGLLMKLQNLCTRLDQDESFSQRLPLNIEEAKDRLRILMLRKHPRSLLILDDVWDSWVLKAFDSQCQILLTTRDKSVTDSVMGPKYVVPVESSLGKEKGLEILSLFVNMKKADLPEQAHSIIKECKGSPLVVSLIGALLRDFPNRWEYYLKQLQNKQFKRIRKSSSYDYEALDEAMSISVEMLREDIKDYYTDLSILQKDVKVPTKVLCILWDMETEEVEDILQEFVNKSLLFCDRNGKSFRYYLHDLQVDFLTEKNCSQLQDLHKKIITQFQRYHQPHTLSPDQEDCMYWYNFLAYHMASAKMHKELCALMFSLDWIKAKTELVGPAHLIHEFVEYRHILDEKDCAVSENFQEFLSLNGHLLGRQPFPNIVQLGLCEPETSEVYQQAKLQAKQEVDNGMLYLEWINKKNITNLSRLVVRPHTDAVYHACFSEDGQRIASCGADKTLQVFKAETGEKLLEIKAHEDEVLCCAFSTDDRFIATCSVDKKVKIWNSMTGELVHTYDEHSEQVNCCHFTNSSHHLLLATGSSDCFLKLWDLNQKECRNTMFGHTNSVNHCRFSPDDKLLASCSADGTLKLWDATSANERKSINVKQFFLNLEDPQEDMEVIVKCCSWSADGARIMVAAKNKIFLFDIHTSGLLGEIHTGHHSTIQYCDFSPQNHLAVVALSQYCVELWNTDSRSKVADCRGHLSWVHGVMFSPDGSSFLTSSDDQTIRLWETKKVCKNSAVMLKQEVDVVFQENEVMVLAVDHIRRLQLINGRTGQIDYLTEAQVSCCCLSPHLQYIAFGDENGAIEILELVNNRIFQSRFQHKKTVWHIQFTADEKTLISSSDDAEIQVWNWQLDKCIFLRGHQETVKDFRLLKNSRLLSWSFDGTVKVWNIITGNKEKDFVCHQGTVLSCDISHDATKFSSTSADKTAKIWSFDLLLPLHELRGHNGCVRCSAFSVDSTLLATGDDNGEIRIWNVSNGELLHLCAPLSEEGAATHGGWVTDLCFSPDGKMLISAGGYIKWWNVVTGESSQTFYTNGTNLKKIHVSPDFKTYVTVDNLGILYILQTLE
Format: functional.

A short description of assay [6]: IC50 of Artemis nuclease activity blockers – biochemical, fluorescence intensity, dose response (AID 720701).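 Note: Artemis endonuclease enzyme.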 Format: functional.
For assay [7], the system named is Candida albicans. Briefly: fluconazole-resistant Candida strain growth inhibitors – CaCi-8 strain, dry powder, set 4, dose response (AID 488950). In kind it is functional, organism-based.
Assay [8] deals with Candida albicans. Nature of the assay: Candida growth reduction in fluconazole presence – CaCi-2 strain, Alamar Blue, dry powder, set 2, antifungal resistance reversal project, dose response (AID 488930). In kind it is functional, organism-based. Background: Resazurin is reduced to fluorescent resorufin, in cell work by metabolically active cells.
The test system of assay [9] is Candida albicans. Briefly: C. albicans growth inhibition with fluconazole – CaCi-2 strain, Alamar Blue, dry powder, set 4, dose response (AID 488943). Format: functional, organism-based.
The test system of assay [10] is Candida albicans. Nature of the assay: resistant Candida growth with fluconazole co-treatment – CaCi-8 strain, Alamar Blue, dry powder, set 2, dose response (AID 488909). In kind it is functional, organism-based.
For assay [11], the system named is INS1. Briefly: suppression of cytokine-induced beta-cell apoptosis – INS-1E, caspase luminescence, dry powder, beta-cell apoptosis inhibitor project, dose response (AID 488848). In kind it is functional, cell-based. Particulars: Rattus norvegicus.
Assay [12] concerns the target Short transient receptor potential channel 6 (Mus musculus, UniProt Q61143). Nature of the assay: mouse TRPC6 channel blockers, concentration series – HEK293 cells, membrane potential dye, IC50, selectivity assay for selective TRPC4 inhibitor project, dose response (AID 492987). Format: functional, cell-based.
Assay [13] can be described thus: NIH-3T3 fibroblast cytotoxicity, dose response, cytotoxicity control, cell-based, fluorescence, Alamar Blue, secondary assay (AID 2327).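 Note: NIH-3T3 mouse fibroblasts cultured with fluconazole at 8 µg/mL.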 In kind it is functional.
A short description of assay [14]: fluconazole-exposed Candida albicans growth modulators – fluorescence, retest, confirmation (AID 2467). In kind it is functional, cell-based.
A short description of assay [15]: Trypanosoma cruzi growth suppression in host cells – NIH3T3 host cells, beta-gal luminescence, confirmation (AID 2044).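 Note: intracellular parasites grown in NIH/3T3 mouse fibroblasts as host cells; luminescent beta-galactosidase reporter signal from transgenic T. cruzi replicating inside host cells; inhibitors lower the luminescence signal.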 Format: functional, cell-based.
Assay [16] has as its target Serine/threonine-protein phosphatase (Candida dubliniensis (strain CD36 / CBS 7987 / NCPF 3949 / NRRLY-17841) (Yeast), UniProt B9W6M3). Briefly: blockers of CaCl2-induced CDRE-lacZ signaling – S. cerevisiae, luminescence, secondary, dose response (AID 2388).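 Note: yeast reporter cells carrying a calcineurin-responsive lacZ construct stimulated with calcium chloride; luminescent beta-galactosidase reporter signal in whole cells rather than isolated phosphatase activity; potency for inhibition where a drop in reporter signal means calcineurin blockade.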 In kind it is functional, cell-based.
Assay [17] can be described thus: NIH3T3 cell viability loss – ATP luminescence, mouse fibroblasts, counter-screen, dose response (AID 2010).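 Note: cells exposed to compound for about 90 hours before reading.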 In kind it is functional, cell-based.
In assay [18] the target is T2, Replicative DNA helicase DnaB (Mycobacterium tuberculosis, UniProt P9WMR3).
T2 sequence (P9WMR3 whole entry): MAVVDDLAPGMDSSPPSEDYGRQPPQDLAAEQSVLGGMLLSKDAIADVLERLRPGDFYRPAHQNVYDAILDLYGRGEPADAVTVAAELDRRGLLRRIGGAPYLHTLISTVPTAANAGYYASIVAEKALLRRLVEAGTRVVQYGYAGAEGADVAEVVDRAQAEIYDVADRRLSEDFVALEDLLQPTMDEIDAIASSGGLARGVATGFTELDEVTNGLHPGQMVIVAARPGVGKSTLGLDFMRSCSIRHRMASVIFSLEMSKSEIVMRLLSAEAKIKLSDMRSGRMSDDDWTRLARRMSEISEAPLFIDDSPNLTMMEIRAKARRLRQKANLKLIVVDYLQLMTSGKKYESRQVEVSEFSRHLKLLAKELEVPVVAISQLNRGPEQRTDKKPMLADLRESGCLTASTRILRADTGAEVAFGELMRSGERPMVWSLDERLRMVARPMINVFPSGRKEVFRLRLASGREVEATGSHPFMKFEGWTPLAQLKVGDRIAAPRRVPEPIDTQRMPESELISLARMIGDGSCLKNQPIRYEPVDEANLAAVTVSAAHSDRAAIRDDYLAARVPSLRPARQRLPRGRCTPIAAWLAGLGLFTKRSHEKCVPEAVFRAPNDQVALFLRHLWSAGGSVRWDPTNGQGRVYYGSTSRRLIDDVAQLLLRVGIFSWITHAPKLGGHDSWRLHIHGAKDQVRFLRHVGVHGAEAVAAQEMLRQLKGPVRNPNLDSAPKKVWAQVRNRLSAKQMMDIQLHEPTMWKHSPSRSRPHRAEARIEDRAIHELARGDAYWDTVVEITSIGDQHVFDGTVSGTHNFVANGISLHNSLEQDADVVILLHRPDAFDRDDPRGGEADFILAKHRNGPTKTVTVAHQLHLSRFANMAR
Briefly: DnaB intein splicing inhibitors, dose response, biochemical, cell-free fluorescence (AID 449749). In kind it is functional.

Assay [19] has as its target T3, Protein RecA (Mycobacterium tuberculosis, UniProt P9WHJ3).
T3 sequence (P9WHJ3 whole entry): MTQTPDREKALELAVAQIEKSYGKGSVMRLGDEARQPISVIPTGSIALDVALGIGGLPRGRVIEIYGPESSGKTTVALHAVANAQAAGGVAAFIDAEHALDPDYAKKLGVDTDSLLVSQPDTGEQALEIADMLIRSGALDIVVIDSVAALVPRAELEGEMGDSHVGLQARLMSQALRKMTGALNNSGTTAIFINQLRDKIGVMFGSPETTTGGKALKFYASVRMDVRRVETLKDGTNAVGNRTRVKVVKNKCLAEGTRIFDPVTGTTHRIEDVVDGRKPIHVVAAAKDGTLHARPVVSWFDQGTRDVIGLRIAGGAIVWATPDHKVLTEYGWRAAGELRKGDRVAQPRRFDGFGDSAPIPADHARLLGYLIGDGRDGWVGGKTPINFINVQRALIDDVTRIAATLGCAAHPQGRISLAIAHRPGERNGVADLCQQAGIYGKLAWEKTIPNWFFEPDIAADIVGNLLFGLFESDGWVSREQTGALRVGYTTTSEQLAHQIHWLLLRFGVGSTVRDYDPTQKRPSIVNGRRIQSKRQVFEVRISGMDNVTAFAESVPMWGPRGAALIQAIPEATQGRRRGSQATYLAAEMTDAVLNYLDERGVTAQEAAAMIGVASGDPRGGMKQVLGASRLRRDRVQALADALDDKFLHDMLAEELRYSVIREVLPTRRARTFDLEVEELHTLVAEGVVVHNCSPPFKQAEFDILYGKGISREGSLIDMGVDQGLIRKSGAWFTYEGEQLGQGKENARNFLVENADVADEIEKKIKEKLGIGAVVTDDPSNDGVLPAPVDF
Briefly: Fluorescence Cell-Free Homogeneous Dose Retest to Identify Inhibitors of RecA-Intein Splicing Activity. [Related pubchem assays (depositor defined):AID2097, AID2223, AID489010, AID492950]. In kind it is functional.

In assay [20] the test system is INS1. Nature of the assay: INS-1E survival protection against cytokine death – cell-based, luminescence, retest, dose response (AID 449756).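 Note: cell death triggered by IL-1 beta plus TNF-alpha plus IFN-gamma mixture; protective hits raise ATP signal compared with cytokine alone wells.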 As to conditions: Rattus norvegicus, INS1. Format: functional.
Assay [21] deals with ATP-dependent molecular chaperone HSP82 (Candida albicans (strain WO-1) (Yeast), UniProt C4YTQ8). Briefly: steroid-induced GRE reporter decrease in yeast – S. cerevisiae, luminescence, Hsp90 inhibitor project, dose response (AID 2400).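 Note: beta-galactosidase luminescence from glucocorticoid response element reporter as proxy for Hsp90 function; inhibitor potency where signal loss means Hsp90 inhibition.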 In kind it is functional, cell-based.
Chain of ATP-dependent molecular chaperone HSP82 (C4YTQ8 whole entry): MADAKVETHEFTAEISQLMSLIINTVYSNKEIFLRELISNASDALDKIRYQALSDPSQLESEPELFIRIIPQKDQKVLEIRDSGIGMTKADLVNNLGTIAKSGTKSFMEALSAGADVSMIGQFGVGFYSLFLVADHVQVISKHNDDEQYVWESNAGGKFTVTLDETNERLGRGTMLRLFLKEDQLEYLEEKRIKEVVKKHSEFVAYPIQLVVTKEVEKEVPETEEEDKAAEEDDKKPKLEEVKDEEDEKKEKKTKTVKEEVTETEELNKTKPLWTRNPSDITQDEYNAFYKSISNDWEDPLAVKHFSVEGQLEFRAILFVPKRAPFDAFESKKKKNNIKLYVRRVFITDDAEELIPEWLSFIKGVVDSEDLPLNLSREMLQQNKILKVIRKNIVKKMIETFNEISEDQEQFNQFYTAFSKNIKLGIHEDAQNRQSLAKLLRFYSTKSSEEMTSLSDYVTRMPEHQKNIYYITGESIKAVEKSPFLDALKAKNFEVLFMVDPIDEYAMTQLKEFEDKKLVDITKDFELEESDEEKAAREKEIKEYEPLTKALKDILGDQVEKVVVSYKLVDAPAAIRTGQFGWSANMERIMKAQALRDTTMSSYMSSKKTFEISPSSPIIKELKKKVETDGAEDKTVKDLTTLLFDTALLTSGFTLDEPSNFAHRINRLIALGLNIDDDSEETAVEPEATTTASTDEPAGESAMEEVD

Chain of Short transient receptor potential channel 6 (Q61143 whole entry): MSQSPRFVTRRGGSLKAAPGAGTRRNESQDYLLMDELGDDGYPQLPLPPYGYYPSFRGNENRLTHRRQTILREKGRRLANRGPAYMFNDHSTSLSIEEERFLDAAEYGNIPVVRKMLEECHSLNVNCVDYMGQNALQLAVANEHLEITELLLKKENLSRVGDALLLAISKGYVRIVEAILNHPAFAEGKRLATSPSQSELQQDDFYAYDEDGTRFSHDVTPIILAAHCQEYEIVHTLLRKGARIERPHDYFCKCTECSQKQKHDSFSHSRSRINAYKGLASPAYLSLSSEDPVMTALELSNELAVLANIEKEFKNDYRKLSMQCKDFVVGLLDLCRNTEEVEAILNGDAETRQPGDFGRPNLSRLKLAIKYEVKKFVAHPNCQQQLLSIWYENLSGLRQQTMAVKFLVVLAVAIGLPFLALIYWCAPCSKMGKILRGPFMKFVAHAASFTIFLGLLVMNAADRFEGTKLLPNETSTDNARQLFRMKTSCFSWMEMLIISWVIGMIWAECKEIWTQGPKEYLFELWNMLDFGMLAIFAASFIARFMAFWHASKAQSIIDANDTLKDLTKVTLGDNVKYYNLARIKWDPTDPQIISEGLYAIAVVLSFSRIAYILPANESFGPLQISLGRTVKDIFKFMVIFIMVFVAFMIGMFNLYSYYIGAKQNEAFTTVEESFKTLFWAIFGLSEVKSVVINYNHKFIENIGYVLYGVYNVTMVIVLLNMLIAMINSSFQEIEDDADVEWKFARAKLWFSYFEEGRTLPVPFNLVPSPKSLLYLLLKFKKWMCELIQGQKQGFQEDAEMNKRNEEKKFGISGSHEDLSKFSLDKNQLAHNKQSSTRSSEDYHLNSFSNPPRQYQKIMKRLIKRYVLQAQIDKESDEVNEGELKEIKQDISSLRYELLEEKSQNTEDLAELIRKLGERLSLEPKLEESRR
Chain of Serine/threonine-protein phosphatase (B9W6M3 whole entry): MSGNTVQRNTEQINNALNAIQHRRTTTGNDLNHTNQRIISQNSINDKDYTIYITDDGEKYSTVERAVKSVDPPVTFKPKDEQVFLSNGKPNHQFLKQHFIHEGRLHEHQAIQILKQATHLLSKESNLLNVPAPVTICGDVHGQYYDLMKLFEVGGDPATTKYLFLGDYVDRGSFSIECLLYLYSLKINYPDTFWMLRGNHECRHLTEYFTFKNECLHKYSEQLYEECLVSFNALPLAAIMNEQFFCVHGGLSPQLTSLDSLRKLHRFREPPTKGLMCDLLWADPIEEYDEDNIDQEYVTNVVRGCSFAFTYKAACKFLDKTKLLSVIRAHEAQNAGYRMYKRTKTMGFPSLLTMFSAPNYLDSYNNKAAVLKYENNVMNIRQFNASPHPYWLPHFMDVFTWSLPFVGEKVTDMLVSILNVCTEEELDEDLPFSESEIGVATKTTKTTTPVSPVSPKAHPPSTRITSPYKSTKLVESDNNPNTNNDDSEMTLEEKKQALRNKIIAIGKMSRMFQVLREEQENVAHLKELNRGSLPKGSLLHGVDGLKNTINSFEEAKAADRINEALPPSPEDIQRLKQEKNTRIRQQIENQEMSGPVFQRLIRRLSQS

For `Clc1ccc(-c2cn3nc4c(nc3n2)CCCC4)cc1`, the EC50 (commonly the concentration at which the effect is half-maximal) in assay [1] was 3.45 µM (active); in assay [2], 5.88 µM (active); in assay [3], 1.51 µM (active). Moreover, the AC50 (usually the midpoint of the concentration-response curve, whichever way the signal moves) in assay [4] was 1.45 µM (active). Also, the IC50 (as a rule, the concentration that inhibits the measured activity by half) in assay [5] is 17.5 µM (active); in assay [6], > 20 µM (inactive).
In the case of `O=C(c1cccc(Cl)c1)N1CCN(c2ccnc3cc(Cl)ccc23)CC1`, the AC50 in assay [7] is 2.43 µM (active); in assay [8] it was 2.33 µM (active); in assay [9] it was 2.75 µM (active); in assay [10], 8.31 µM (active).
Turning to `COc1ccc(S(=O)(=O)N(C)C[C@@H]2Oc3c(NC(=O)Nc4cccc5c4ccn5C)cccc3C(=O)N([C@@H](C)CO)C[C@H]2C)cc1`, the AC50 in assay [11] was 17.5 µM (active).
As for `FC(F)(F)c1cc(N2CCCC2)nc2ccccc12`, in assay [12], the IC50 was 23.1 µM (active).
Turning to `COc1ccccc1NC1=C(N2CCCCC2)C(=O)c2ccccc2C1=O`, the EC50 in assay [13] was 41.7 µM (active); in assay [14], 1.02 µM (active); in assay [15], 0.56 µM (active); in assay [16], > 180 µM (inactive); in assay [17], > 30 µM (not active); in assay [19], 1.51 µM (active). Besides, in assay [21], the EC50 was > 160 µM (inactive). For the same compound, the figures for the half-maximal activity concentration (AC50) in [18] and in [20] were 18.6 µM (active) and 0.916 µM (active), respectively. Further, in assay [5], the IC50 was 3.32 µM (active).
